Test results taken from ChEMBL document CHEMBL1201862, “PubChem BioAssay data set” (2004).
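A five-concentration, 48-hour dose response in 96-well plates underlies each endpoint, interpolated linearly between surrounding concentrations. Abbreviation: GI50, concentration required for 50% inhibition of growth.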 Calls of active or inactive are those of the source. No stated cut-off is given here; in the data, active = GI50 up to about 1.1 µM and inactive = higher.

Legend:
Experiment in all cases: DTP human tumour cell line panel, 48 h
RPMI-8226 = test system: RPMI-8226
HCT-116 = test system: HCT-116
NCI-H226 = test system: NCI-H226
786-0 = test system: 786-0
BT-549 = test system: BT-549
CAKI-1 = test system: CAKI-1
M14 = test system: M14
SR = test system: SR
MCF7 = test system: MCF7
UACC-257 = test system: UACC-257
NCI-H23 = test system: NCI-H23
NCI/ADR-RES = test system: NCI/ADR-RES
SF-295 = test system: SF-295
MDA-MB-231 = test system: MDA-MB-231
RXF 393 = test system: RXF 393
SK-MEL-28 = test system: SK-MEL-28
HL-60 = test system: HL-60
NCI-H460 = test system: NCI-H460
SK-OV-3 = test system: SK-OV-3
SNB-75 = test system: SNB-75
K562 = test system: K562
A549 = test system: A549
T47D = test system: T47D
MDA-MB-435 = test system: MDA-MB-435
KM12 = test system: KM12
COLO 205 = test system: COLO 205
SN12C = test system: SN12C
DU-145 = test system: DU-145
MDA-N = test system: MDA-N
OVCAR-3 = test system: OVCAR-3
UACC-62 = test system: UACC-62
PC-3 = test system: PC-3
IGROV-1 = test system: IGROV-1
CCRF-CEM = test system: CCRF-CEM
HT-29 = test system: HT-29
ACHN = test system: ACHN
SK-MEL-2 = test system: SK-MEL-2
HOP-62 = test system: HOP-62
HCC 2998 = test system: HCC 2998
LOX IMVI = test system: LOX IMVI
NCI-H522 = test system: NCI-H522
TK-10 = test system: TK-10
SW-620 = test system: SW-620
MOLT-4 = test system: MOLT-4
OVCAR-8 = test system: OVCAR-8
SF-268 = test system: SF-268
SNB-19 = test system: SNB-19
U-251 = test system: U-251
HOP-92 = test system: HOP-92
Hs-578T = test system: Hs-578T
HCT-15 = test system: HCT-15
UO-31 = test system: UO-31
SF-539 = test system: SF-539
EKVX = test system: EKVX
SK-MEL-5 = test system: SK-MEL-5
Malme-3M = test system: Malme-3M
A498 = test system: A498
OVCAR-5 = test system: OVCAR-5
OVCAR-4 = test system: OVCAR-4

Compound: NC(=O)c1cc2ccccc2o/c1=N/O
- GI50 (RPMI-8226): > 100 µM (inactive)
- GI50 (HCT-116): > 100 µM (inactive)
- GI50 (NCI-H226): > 100 µM (inactive)
- GI50 (786-0): > 100 µM (inactive)
- GI50 (BT-549): > 100 µM (inactive)
- GI50 (CAKI-1): 27.9 µM (inactive)
- GI50 (M14): > 100 µM (inactive)
- GI50 (SR): > 100 µM (inactive)
- GI50 (MCF7): 29.2 µM (inactive)
- GI50 (UACC-257): > 100 µM (inactive)
- GI50 (NCI-H23): > 100 µM (inactive)
- GI50 (NCI/ADR-RES): > 100 µM (inactive)
- GI50 (SF-295): > 100 µM (inactive)
- GI50 (MDA-MB-231): > 100 µM (inactive)
- GI50 (RXF 393): > 100 µM (inactive)
- GI50 (SK-MEL-28): > 100 µM (inactive)
- GI50 (HL-60): 75.2 µM (inactive)
- GI50 (NCI-H460): > 100 µM (inactive)
- GI50 (SK-OV-3): > 100 µM (inactive)
- GI50 (SNB-75): > 100 µM (inactive)
- GI50 (K562): > 100 µM (inactive)
- GI50 (A549): 78.5 µM (inactive)
- GI50 (T47D): > 100 µM (inactive)
- GI50 (MDA-MB-435): 54.1 µM (inactive)
- GI50 (KM12): > 100 µM (inactive)
- GI50 (COLO 205): > 100 µM (inactive)
- GI50 (SN12C): > 100 µM (inactive)
- GI50 (DU-145): > 100 µM (inactive)
- GI50 (MDA-N): > 100 µM (inactive)
- GI50 (OVCAR-3): > 100 µM (inactive)
- GI50 (UACC-62): 35.8 µM (inactive)
- GI50 (PC-3): > 100 µM (inactive)
- GI50 (IGROV-1): 66.1 µM (inactive)
- GI50 (CCRF-CEM): > 100 µM (inactive)
- GI50 (HT-29): > 100 µM (inactive)
- GI50 (ACHN): > 100 µM (inactive)
- GI50 (SK-MEL-2): > 100 µM (inactive)
- GI50 (HOP-62): > 100 µM (inactive)
- GI50 (HCC 2998): > 100 µM (inactive)
- GI50 (LOX IMVI): > 100 µM (inactive)
- GI50 (NCI-H522): 61.4 µM (inactive)
- GI50 (TK-10): > 100 µM (inactive)
- GI50 (SW-620): > 100 µM (inactive)
- GI50 (MOLT-4): > 100 µM (inactive)
- GI50 (OVCAR-8): > 100 µM (inactive)
- GI50 (SF-268): > 100 µM (inactive)
- GI50 (SNB-19): > 100 µM (inactive)
- GI50 (U-251): > 100 µM (inactive)
- GI50 (HOP-92): > 100 µM (inactive)
- GI50 (Hs-578T): 26.2 µM (inactive)
- GI50 (HCT-15): > 100 µM
- GI50 (UO-31): 38.7 µM (inactive)
- GI50 (SF-539): > 100 µM (inactive)
- GI50 (EKVX): 32.2 µM (inactive)
- GI50 (SK-MEL-5): > 100 µM (inactive)

Compound: CC(O)C(O)C(O)C(/C=N\Nc1ccccc1)=N/Nc1ccccc1 (stereo not drawn)
- GI50 (RPMI-8226): 18.3 µM (inactive)
- GI50 (HCT-116): 15.3 µM (inactive)
- GI50 (786-0): 14.2 µM (inactive)
- GI50 (BT-549): 13.7 µM (inactive)
- GI50 (CAKI-1): 2.18 µM (inactive)
- GI50 (M14): 13.3 µM (inactive)
- GI50 (SR): 17.3 µM (inactive)
- GI50 (Malme-3M): 20 µM (inactive)
- GI50 (MCF7): 10.5 µM (inactive)
- GI50 (A498): 9.02 µM (inactive)
- GI50 (NCI-H23): 11.9 µM (inactive)
- GI50 (NCI/ADR-RES): 11.2 µM (inactive)
- GI50 (SF-295): 11.6 µM (inactive)
- GI50 (MDA-MB-231): 12.3 µM (inactive)
- GI50 (SK-MEL-28): 16.6 µM (inactive)
- GI50 (HL-60): 12.6 µM (inactive)
- GI50 (NCI-H460): 10.7 µM (inactive)
- GI50 (SK-OV-3): 15.6 µM (inactive)
- GI50 (SNB-75): 16.7 µM (inactive)
- GI50 (K562): 6.78 µM (inactive)
- GI50 (A549): 11.4 µM (inactive)
- GI50 (T47D): 6.21 µM (inactive)
- GI50 (MDA-MB-435): 13.4 µM (inactive)
- GI50 (KM12): 4.7 µM (inactive)
- GI50 (COLO 205): 14.3 µM (inactive)
- GI50 (SN12C): 16 µM (inactive)
- GI50 (DU-145): 15.1 µM (inactive)
- GI50 (MDA-N): 12.6 µM (inactive)
- GI50 (OVCAR-3): 8.55 µM (inactive)
- GI50 (UACC-62): 10 µM (inactive)
- GI50 (PC-3): 15.8 µM (inactive)
- GI50 (IGROV-1): 8.49 µM (inactive)
- GI50 (CCRF-CEM): 18.5 µM (inactive)
- GI50 (HT-29): 15.9 µM (inactive)
- GI50 (ACHN): 10.8 µM (inactive)
- GI50 (SK-MEL-2): 8.63 µM (inactive)
- GI50 (HOP-62): 14.4 µM (inactive)
- GI50 (HCC 2998): 10.8 µM (inactive)
- GI50 (LOX IMVI): 4.58 µM (inactive)
- GI50 (NCI-H522): 8.09 µM (inactive)
- GI50 (TK-10): 12.6 µM (inactive)
- GI50 (SW-620): 11.6 µM (inactive)
- GI50 (MOLT-4): 18.7 µM (inactive)
- GI50 (OVCAR-8): 13.2 µM (inactive)
- GI50 (SF-268): 10.2 µM (inactive)
- GI50 (SNB-19): 15.7 µM (inactive)
- GI50 (U-251): 13.9 µM (inactive)
- GI50 (HOP-92): 14.7 µM (inactive)
- GI50 (Hs-578T): 11 µM (inactive)
- GI50 (OVCAR-5): 13.9 µM (inactive)
- GI50 (HCT-15): 12.4 µM
- GI50 (UO-31): 12.2 µM (inactive)
- GI50 (SF-539): 15.1 µM (inactive)
- GI50 (EKVX): 12.1 µM (inactive)
- GI50 (SK-MEL-5): 15.1 µM (inactive)

Compound: O=C(/C=C/c1ccc(O)c(O)c1)Oc1ccccc1
- GI50 (RPMI-8226): 3.17 µM (inactive)
- GI50 (HCT-116): 9.71 µM (inactive)
- GI50 (NCI-H226): 35.1 µM (inactive)
- GI50 (786-0): 10.6 µM (inactive)
- GI50 (BT-549): 14.9 µM (inactive)
- GI50 (CAKI-1): 5.85 µM (inactive)
- GI50 (M14): 15.5 µM (inactive)
- GI50 (SR): 0.434 µM (active)
- GI50 (MCF7): 12.2 µM (inactive)
- GI50 (A498): 55 µM (inactive)
- GI50 (UACC-257): 22.8 µM (inactive)
- GI50 (NCI-H23): 14.4 µM (inactive)
- GI50 (NCI/ADR-RES): 11.2 µM (inactive)
- GI50 (SF-295): 19.5 µM (inactive)
- GI50 (MDA-MB-231): 23.1 µM (inactive)
- GI50 (RXF 393): 8.71 µM (inactive)
- GI50 (SK-MEL-28): 22.5 µM (inactive)
- GI50 (HL-60): 1.61 µM (inactive)
- GI50 (NCI-H460): 19.2 µM (inactive)
- GI50 (SK-OV-3): 45.6 µM (inactive)
- GI50 (SNB-75): 13.1 µM (inactive)
- GI50 (K562): 4.27 µM (inactive)
- GI50 (A549): 15.3 µM (inactive)
- GI50 (T47D): 9.71 µM (inactive)
- GI50 (OVCAR-4): 15.2 µM (inactive)
- GI50 (MDA-MB-435): 14.5 µM (inactive)
- GI50 (KM12): 9.29 µM (inactive)
- GI50 (COLO 205): 9.57 µM (inactive)
- GI50 (SN12C): 16 µM (inactive)
- GI50 (DU-145): 13.2 µM (inactive)
- GI50 (MDA-N): 16.1 µM (inactive)
- GI50 (OVCAR-3): 6.98 µM (inactive)
- GI50 (UACC-62): 13.2 µM (inactive)
- GI50 (PC-3): 17.1 µM (inactive)
- GI50 (IGROV-1): 4.19 µM (inactive)
- GI50 (CCRF-CEM): 0.292 µM (active)
- GI50 (HT-29): 11.3 µM (inactive)
- GI50 (ACHN): 8.45 µM (inactive)
- GI50 (SK-MEL-2): 15.7 µM (inactive)
- GI50 (HOP-62): 15.8 µM (inactive)
- GI50 (HCC 2998): 18.6 µM (inactive)
- GI50 (LOX IMVI): 4.9 µM (inactive)
- GI50 (NCI-H522): 0.304 µM (active)
- GI50 (TK-10): 28.1 µM (inactive)
- GI50 (SW-620): 12.6 µM (inactive)
- GI50 (MOLT-4): 0.268 µM (active)
- GI50 (OVCAR-8): 12.7 µM (inactive)
- GI50 (SF-268): 7.59 µM (inactive)
- GI50 (SNB-19): 20.4 µM (inactive)
- GI50 (U-251): 12.6 µM (inactive)
- GI50 (HOP-92): 14.9 µM (inactive)
- GI50 (Hs-578T): 14.2 µM (inactive)
- GI50 (OVCAR-5): 28.7 µM (inactive)
- GI50 (HCT-15): 2.74 µM
- GI50 (UO-31): 7.43 µM (inactive)
- GI50 (SF-539): 10.6 µM (inactive)
- GI50 (EKVX): 18.6 µM (inactive)
- GI50 (SK-MEL-5): 9.95 µM (inactive)
